In patent US20120015907A1, “Furopyridine compounds and uses thereof” (NOVARTIS AG, priority 2010, published 2012):
pIC50: −log10 of the molar value.

Columns and labels:
[1] = tested on: HCV replicon I389luc-ubi-neo/NS3-3'/ET in ET (Huh-lucubineo-ET) cells; assay: Replicon assay (Biological Example 2), luciferase read-out; assay type: cell-based; settings: Hepatitis C virus, luciferase activity 48 hours after compound addition
Procedure, shortened: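 ET cells stably carry the replicon with adaptive mutations E1202G, […] and K1846T. Compound is added 24 h after plating at 0.1 nM–50 μM final (10-point, 3-fold dilutions) with 0.5% DMSO, and luciferase is read 48 h later. EC50 comes from a Hill-equation fit of % inhibition versus no-compound control.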

HCV polymerase = biological target: T1, HCV polymerase (Hepatitis C virus genotype 1b, UniProt Q9WMX2); assay: biochemical; settings: polymerase assay of Biological Example 1; read-out: NS5B polymerase IC50
T1 construct: (His)6 (C)

Compound CNC(=O)c1c(-c2ccc(F)cc2)oc2nc3c(cc12)CCCCCCN3S(C)(=O)=O [Example 36.4, 2-(4-Fluoro-phenyl)-11-methanesulfonyl-6,7,8,9,10,11-hexahydro-5H-1-oxa-11,12-diaza-cyclonona[f]indene-3-carboxylic acid methylamide] has a pIC50 [1] of no less than 7.00 and a pIC50 (HCV polymerase) of 8.30.
